Consider one compound from patent US10363227B2, “Pharmaceutical formulation for use in the treatment and/or prevention of restenosis” (Centre Hospitalier Universitaire Vaudois (C.H.U.V.), priority 2013, dated 2019).

Test [1] deals with human vascular smooth muscle cells (hVSMC). Nature of the test: hVSMC viability, MTT test. The class given is cell-based. (In general: Tetrazolium dyes change colour on reduction, which living cells bring about.)
In another test the test system is Primary hVSMCs. Nature of the test: hVSMC migration, silicon culture inserts with cell free gap. The test is classed as cell-based, human. As for the experimental part: (§1) To that end, experiments on the influence of the drug on migration and transmigration of the hVSMC and the expression of different mRNAs of proteins involved in the cellular invasivity were performed.

A further test relates to hVSMCs. Nature of the test: mRNA levels in hVSMCs (PAI-1, MMP2, Cx43, tPA, HMOX). The class given is cell-based, human. The following applies: ATV directly added in the medium, 24 hours incubation. As for the experimental part: FIG. 6: Analysis of transcripts and proteins of hVSMC. Measurements of various mRNAs levels in hVSMCs in presence of ATV directly added in the medium were performed. PAI-1 and MMP2 and Cx43 mRNA levels were decreased whereas tPA and HMOX transcripts were increased after 24 hours incubation.
as §1

Take `CC(C)c1c(C(=O)Nc2ccccc2)c(-c2ccccc2)c(-c2ccc(F)cc2)n1CC[C@@H](O)C[C@@H](O)CC(=O)O` [ATV, Atorvastatin]: the “time of viability reduction” value in test [1] (5 μM ATV) worked out at 72 h. The “time of viability reduction” value in test [1] (10 μM ATV) is given as 24 h. Besides, the “viability of hVSMCs (MTT test)” value in test [1] (5-10 μM ATV, P<0.05 versus cells without ATV) is “significantly reduced”. Moreover, the “proliferation of human SMC” value in test [1] (primary culture at passage 2-5) is recorded as “decreased”. In addition, the “time at which inhibition of cell migration was observed” value in the test on Primary hVSMCs (5 μM ATV directly added to the culture medium) turned out to be 36 h. Moreover, the “time at which inhibition of cell migration was observed” value with Primary hVSMCs (10 μM ATV directly added to the culture medium) stood at 24 h. Further, the “hVSMC migration into cell free gap” value with Primary hVSMCs (5 and 10 μM ATV) is “decreased”. For the same compound, in the test with hVSMCs, the “Cx43 mRNA level” value is given as “decreased”, the HMOX transcript level entry is given as “increased”, the “MMP2 mRNA level” value was “decreased” and the “PAI-1 mRNA level” value is “decreased”. Moreover, the tPA transcript level entry in the test on hVSMCs was “increased”.
